In article PMC6264278, “Corydaline Inhibits Multiple Cytochrome P450 and UDP-Glucuronosyltransferase Enzyme Activities in Human Liver Microsomes” (Molecules, 2011):

Molecular target: T1, CYP2A6 (Homo sapiens, UniProt P11509)
T1 construct: using pooled human liver microsomes; tissue BD Gentest Co. H161; host or cells: pooled human liver microsomes
T1 sequence (P11509 1-494): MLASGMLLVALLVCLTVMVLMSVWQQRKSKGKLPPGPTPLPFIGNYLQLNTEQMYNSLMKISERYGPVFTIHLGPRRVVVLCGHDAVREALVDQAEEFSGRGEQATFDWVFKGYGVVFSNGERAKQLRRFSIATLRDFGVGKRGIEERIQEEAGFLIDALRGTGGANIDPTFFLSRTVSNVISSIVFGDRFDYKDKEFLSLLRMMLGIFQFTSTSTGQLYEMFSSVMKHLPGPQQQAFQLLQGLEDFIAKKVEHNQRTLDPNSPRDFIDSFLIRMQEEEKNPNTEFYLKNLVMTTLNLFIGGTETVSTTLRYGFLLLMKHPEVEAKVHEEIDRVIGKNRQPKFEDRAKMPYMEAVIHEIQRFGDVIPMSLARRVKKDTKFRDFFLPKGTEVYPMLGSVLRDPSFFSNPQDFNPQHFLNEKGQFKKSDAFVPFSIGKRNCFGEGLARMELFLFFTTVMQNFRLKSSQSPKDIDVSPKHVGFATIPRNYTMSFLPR
Assay: CYP2A6 coumarin 7-hydroxylation inhibition, cocktail assay in pooled human liver microsomes
Format: in vitro ADME
Conditions: 2.5 μM coumarin, no inhibition at 200 μM of corydaline; for IC50 no preincubation, CYP2A6 coumarin 7-hydroxylation: pooled human liver microsomes (H161)
Procedure: Phenacetin O-deethylase, coumarin 7-hydroxylase, amodiaquine N-deethylase, diclofenac 4-hydroxylase, S-mephenytoin 4-hydroxylase, bufuralol hydroxylase, and midazolam 1’-hydroxylase activities were determined as probe activities for CYP1A2, CYP2A6, CYP2C8, CYP2C9, CYP2C19, CYP2D6, and CYP3A4, respectively, using cocktail incubation and liquid chromatography-tandem mass spectrometry (LC/MS/MS). The incubation mixtures were prepared in a total volume of 200 μL, as follows: pooled human liver microsomes (0.25 mg/mL), 1.3 mM NADPH, 3.3 mM MgCl2, 50 mM potassium phosphate buffer (pH 7.4), and a cocktail of probe substrates and various concentrations of corydaline (1−200 μM). The substrates were used at concentrations approximately equal to their respective Km values: 50 μM phenacetin, 2.5 μM coumarin, 2.5 μM amodiaquine, 10 μM diclofenac, 100 μM S-mephenytoin, 5 μM bufuralol, and 2.5 μM midazolam. After a 3-min pre-incubation period at 37 °C, the reactions were initiated by addition of an NADP generating system and incubated for 20 min at 37 °C in a shaking water bath. After incubation, the reaction was stopped by placement of the tubes on ice and addition of 100 μL of ice-cold methanol containing internal standards (^13C2,^15N-acetaminophen for acetaminophen and N-desethylamodiaquine, d5-7-hydroxycoumarin for 7-hydroxycoumarin, ^13C6-4-hydroxydiclofenac for 4-hydroxydiclofenac, d3-4-hydroxy-mephenytoin for 4-hydroxymephenytoin and hydroxymidazolam, d9-1-hydroxybufuralol for 1-hydroxybufuralol). The incubation mixtures were then centrifuged at 13,000 × g for 5 min. All incubations were performed in triplicate and the mean values were used. […] The reaction was started by addition of a cocktail of CYP probe substrates.
All 7 metabolites produced from the cocktail of CYP isoform-specific substrates were simultaneously determined by LC/MS/MS [25]. […] Quantification was performed by selected reaction monitoring (SRM) of the [M+H]^+ ion and the related product ion for each metabolite. […]

## COc1cc2c(cc1OC)C1C(C)c3ccc(OC)c(OC)c3CN1CC2 (stereo not drawn) [Corydaline, 2,3,9,10-tetramethoxy-13-methyl-5,8,13,13a-tetrahydro-6H-isoquino[3,2-a]isoquinoline]
  IC50 no preincubation, CYP2A6 coumarin 7-hydroxylation: negligible inhibition
Listed as corydaline
  IC50 no preincubation, CYP2A6 coumarin 7-hydroxylation: No inhibition **
pre-incubated 30 min with NADPH
  IC50 with preincubation, CYP2A6 coumarin 7-hydroxylation: No inhibition **
